Laboratory results from publication PMC6163080 (Journal of chromatography. B, Analytical technologies in …, 2018).

Columns and labels:
[1] = Stability of CLBQ14 in rat plasma samples; assay type: in vitro ADME, Sprague Dawley rat
MtMetAP1c = details: high-throughput screening; ref [2], [17]; cited from earlier work
human MetAPs = details: in vitro; ref [2]; cited from earlier work
[2] = Stability of CLBQ14 in rat urine samples; assay type: in vitro ADME, Sprague Dawley rat
MtMetAP1a = details: high-throughput screening; ref [2], [17]; cited from earlier work
aged non-growing Mtb = details: in vitro; ref [2]; cited from earlier work
[3] = Pharmacokinetic study, single IV bolus in adult male Sprague Dawley rats; assay type: in vivo; details: for AUC(0-inf) / C0 / clearance / half-life / Vd: male, Sprague Dawley, rat, plasma, iv
replicating Mtb = details: in vitro; ref [2]; cited from earlier work
[4] = Sprague Dawley, rat, Freeze-thaw cycle stability, mean recovery ± SD
[5] = Sprague Dawley, rat, Processed sample or auto-sampler stability, mean recovery ± SD, No IS
[6] = Sprague Dawley, rat, Processed sample or auto-sampler stability, mean recovery ± SD, With IS
[7] = Sprague Dawley, rat, Short-term (bench-top) stability, mean recovery ± SD
[8] = 2 mg/kg single IV bolus, male SD rats, n = 4, mean ± SD
[9] = 5 mg/kg single IV bolus, male SD rats, n = 3, mean ± SD
[10] = 10 mg/kg single IV bolus, male SD rats, n = 4, mean ± SD

`Oc1c(Br)cc(Cl)c2cccnc12` [CLBQ14, 7-bromo-5-chloroquinolin-8-ol] showed a recovery at 2.5 ng/mL [1, 4] of 104 ± 4.72%, a recovery at 400 ng/mL [1, 4] of 95.9 ± 1.89% and a recovery at 800 ng/mL [1, 4] of 96.8 ± 1.25%. It also gave a recovery at 14 days ([1]; Sprague Dawley, rat, Long-term stability, mean recovery ± SD) of no more than 91.3%, a recovery ([1]; Sprague Dawley, rat, Mean recovery after three freeze-thaw cycles) greater than 95.9% and a recovery at 2 h [1, 5] of 97.8 ± 1.11%. It also gave a recovery at 4 h [1, 5] of 97.1 ± 5.42%, a recovery at 6 h [1, 5] of 95.5 ± 6.69% and a recovery at 2 h [1, 6] of 95.9 ± 1.87%. For the same molecule, the recovery at 4 h [1, 6] was 94.7 ± 4.2%, the recovery at 6 h [1, 6] was 97.3 ± 5.55% and the recovery at 2 h [1, 7] was 91.6 ± 4.06%. For the same molecule, the recovery at 4 h [1, 7] was 95.1 ± 3.24%, the recovery at 6 h [1, 7] was 93.7 ± 1.17% and the “Stability at room temperature” value ([1]; rat plasma samples, room temperature) was “stable for up to 6 hours”. For the same molecule, the “Inhibition of MtMetAP1c” value (MtMetAP1c) was “potent and selective inhibitor”, the “Selectivity for both MtMetAPs over human MetAPs” value (human MetAPs) was “great selectivity” and the “Stability at room temperature” value [2] was “stable for up to 6 hours”. For the same molecule, the “Inhibition of MtMetAP1a” value (MtMetAP1a) was “potent and selective inhibitor”, the “Potency against aged non-growing Mtb” value (aged non-growing Mtb) was “increased potency” and the “A (coefficient of distributional phase)” value [3, 8] was 1.39 ± 0.27 mg/L. For the same molecule, the “B (coefficient of terminal phase)” value [3, 8] was 0.05 ± 0.00 mg/L, the “A (coefficient of distributional phase)” value [3, 9] was 3.14 ± 0.42 mg/L and the “B (coefficient of terminal phase)” value [3, 9] was 0.09 ± 0.04 mg/L. The “A (coefficient of distributional phase)” value [3, 10] was 5.09 ± 1.36 mg/L, the “B (coefficient of terminal phase)” value [3, 10] was 0.17 ± 0.07 mg/L and the “Administered dose excreted unchanged in urine” value ([3]; after 24 hr, IV bolus, male SD rats) was 0.19 ± 0.04%. The AUC(0-inf) ([3]; 2 mg/kg) was 1360 ± 60 ng·h/mL, the C0 ([3]; 2 mg/kg) was 1440 ± 270 ng/mL and the clearance ([3]; 2 mg/kg, Cl (total clearance), 2 mg/kg single IV bolus, male SD rats, n = 4, mean ± SD) was 24.7 mL/min/kg. It also gave a half-life ([3]; 2 mg/kg, T1/2α (half-life of distributional phase), 2 mg/kg single IV bolus, male SD rats, n = 4, mean ± SD) of 0.16 ± 0.04 h, a half-life ([3]; 2 mg/kg, T1/2β (elimination half-life of the beta elimination phase), 2 mg/kg single IV bolus, male SD rats, n = 4, mean ± SD) of 14.8 ± 0.53 h and a Vd ([3]; 2 mg/kg, Vss (volume of distribution at steady state), 2 mg/kg single IV bolus, male SD rats, n = 4, mean ± SD) of 24.3 ± 1.28 L/kg. It also gave an AUC(0-inf) ([3]; 5 mg/kg) of 1960 ± 400 ng·h/mL, a C0 ([3]; 5 mg/kg) of 3240 ± 440 ng/mL and a clearance ([3]; 5 mg/kg, Cl (total clearance), 5 mg/kg single IV bolus, male SD rats, n = 3, mean ± SD) of 43.7 mL/min/kg. For the same molecule, the half-life ([3]; 5 mg/kg, T1/2α (half-life of distributional phase), 5 mg/kg single IV bolus, male SD rats, n = 3, mean ± SD) was 0.17 ± 0.03 h, the half-life ([3]; 5 mg/kg, T1/2β (elimination half-life of the beta elimination phase), 5 mg/kg single IV bolus, male SD rats, n = 3, mean ± SD) was 10 ± 4.6 h and the Vd ([3]; 5 mg/kg, Vss (volume of distribution at steady state), 5 mg/kg single IV bolus, male SD rats, n = 3, mean ± SD) was 23.2 ± 11.5 L/kg. It also gave an AUC(0-inf) ([3]; 10 mg/kg) of 4830 ± 740 ng·h/mL, a C0 ([3]; 10 mg/kg) of 5270 ± 1430 ng/mL and a clearance ([3]; 10 mg/kg, Cl (total clearance), 10 mg/kg single IV bolus, male SD rats, n = 4, mean ± SD) of 35.2 mL/min/kg. For the same molecule, the clearance ([3]; 10 mg/kg, Estimated total plasma clearance, across the 3 groups (2, 5 and 10 mg/kg IV bolus), male SD rats) was no more than 43.7 mL/min/kg, the Vd ([3]; 10 mg/kg, Steady state volume of distribution, across the 3 groups (2, 5 and 10 mg/kg IV bolus), male SD rats) was no more than 25.3 L/kg and the half-life ([3]; 10 mg/kg, T1/2α (half-life of distributional phase), 10 mg/kg single IV bolus, male SD rats, n = 4, mean ± SD) was 0.25 ± 0.09 h. For the same molecule, the half-life ([3]; 10 mg/kg, T1/2β (elimination half-life of the beta elimination phase), 10 mg/kg single IV bolus, male SD rats, n = 4, mean ± SD) was 13.4 ± 3.59 h, the Vd ([3]; 10 mg/kg, Vss (volume of distribution at steady state), 10 mg/kg single IV bolus, male SD rats, n = 4, mean ± SD) was 27.3 ± 11.6 L/kg and the “Potency against replicating Mtb” value (replicating Mtb) was “great potency”.
